Experiments:
[1] = molecular target: T1, Casein kinase 1 epsilon (Homo sapiens, UniProt P49674); assay: thermal proteome profiling (iTRAQ LC-MS/MS), isothermal dose-response stabilization at […] °C, SH-SY5Y cells; type: biochemical
T1 construct: gene CSNK1E

[2] = molecular target: T2, Nicastrin (Homo sapiens, UniProt Q92542); assay: as above; type: biochemical
T2 construct: gene NCSTN
T2 sequence (Q92542 34-709): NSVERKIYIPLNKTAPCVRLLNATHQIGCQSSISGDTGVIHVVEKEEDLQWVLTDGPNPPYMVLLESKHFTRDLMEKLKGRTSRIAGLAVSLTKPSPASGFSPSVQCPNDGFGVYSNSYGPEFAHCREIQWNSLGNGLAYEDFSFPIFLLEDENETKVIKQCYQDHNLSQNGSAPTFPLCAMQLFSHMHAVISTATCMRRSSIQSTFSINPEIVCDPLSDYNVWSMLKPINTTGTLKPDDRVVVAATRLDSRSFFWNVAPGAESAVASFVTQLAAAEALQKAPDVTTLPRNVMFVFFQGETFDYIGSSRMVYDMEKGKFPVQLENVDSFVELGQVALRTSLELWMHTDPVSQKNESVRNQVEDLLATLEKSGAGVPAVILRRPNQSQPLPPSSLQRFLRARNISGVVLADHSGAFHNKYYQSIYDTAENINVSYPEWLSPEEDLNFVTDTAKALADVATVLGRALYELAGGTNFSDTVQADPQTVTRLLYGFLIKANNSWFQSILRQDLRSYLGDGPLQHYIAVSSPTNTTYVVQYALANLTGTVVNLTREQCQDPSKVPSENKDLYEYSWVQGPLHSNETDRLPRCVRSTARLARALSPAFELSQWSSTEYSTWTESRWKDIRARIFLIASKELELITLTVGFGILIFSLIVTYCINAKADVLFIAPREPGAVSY

T1 sequence (P49674 whole entry): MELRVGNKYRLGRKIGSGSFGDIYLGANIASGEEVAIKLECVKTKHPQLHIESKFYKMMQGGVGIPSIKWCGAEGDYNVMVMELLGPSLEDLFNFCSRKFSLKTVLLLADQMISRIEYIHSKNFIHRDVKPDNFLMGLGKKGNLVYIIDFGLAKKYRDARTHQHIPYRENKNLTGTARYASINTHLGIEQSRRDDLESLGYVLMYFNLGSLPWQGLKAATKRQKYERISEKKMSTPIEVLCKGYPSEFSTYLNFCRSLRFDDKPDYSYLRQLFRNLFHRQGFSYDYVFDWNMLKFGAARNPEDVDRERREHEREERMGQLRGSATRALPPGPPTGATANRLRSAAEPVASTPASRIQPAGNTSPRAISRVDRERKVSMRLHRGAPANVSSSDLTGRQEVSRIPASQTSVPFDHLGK

EC50 [1]: 7.22 µM | EC50 [2]: 6.03 µM
SMILES: C[C@H](CCC(=O)O)[C@H]1CC[C@H]2[C@@H]3CC[C@@H]4C[C@H](O)CC[C@]4(C)[C@H]3C[C@H](O)[C@]12C [deoxycholic acid]
